Some test systems named below: ACHN renal; CAKI-1 renal; K-562 leukemia; NCI-H522 lung; OVCAR-4 ovarian; OVCAR-5 ovarian; SK-MEL-2 melanoma; SNB-19 CNS; T-47D breast; UACC-257 melanoma.
Experiment in all cases: inhibition of tumour cell growth, NCI panel, 48 h

The values that follow come from PubChem BioAssay (NCI).

Structures are written as SMILES.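 1) Cells in 96-well plates. 2) Compound, 48 h, 5 concentrations. 3) Linear interpolation between surrounding doses. 4) Unreached endpoint = highest concentration. The concentration for 50% growth inhibition is given as GI50. Definition used: TGI = concentration required for complete inhibition of growth.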

For the compound `CC[C@@H]1c2c(C#N)ncn2-c2cnc(Nc3ccc(C(=O)NC4CCN(C5CCN(CC6CC6)CC5)CC4)cc3OC)nc2N1C1CCCC1`, the GI50 was 0.625 µM in the test on ACHN renal; 1.62 µM in the test on CAKI-1 renal; 0.0337 µM in the test with K-562 leukemia; 0.023 µM in the test with NCI-H522 lung; 0.214 µM with OVCAR-4 ovarian; 0.0449 µM in the test on OVCAR-5 ovarian. Besides, the GI50 is 0.0407 µM in the test with SK-MEL-2 melanoma, 0.0668 µM in the test on SNB-19 CNS, 1.3 µM in the test with T-47D breast and 0.0431 µM with UACC-257 melanoma. Besides, the TGI in the test with ACHN renal amounted to 1.93 µM; with CAKI-1 renal, 3.88 µM; with K-562 leukemia, 0.308 µM; in the test with NCI-H522 lung it was 0.126 µM; with OVCAR-4 ovarian it was 1.7 µM; in the test on OVCAR-5 ovarian it was 1.39 µM. Also, the TGI is 1.82 µM in the test with SK-MEL-2 melanoma, 2.05 µM with SNB-19 CNS, 2.88 µM with T-47D breast and 1.67 µM in the test with UACC-257 melanoma.
As to `CNC(=O)Nc1nc2ccc([N+](=O)[O-])cc2[nH]1`, the TGI in the test on ACHN renal, in the test with CAKI-1 renal, in the test on K-562 leukemia, in the test with NCI-H522 lung, with OVCAR-4 ovarian and in the test on OVCAR-5 ovarian was above 100 µM in each case. Besides, the TGI in the test with SK-MEL-2 melanoma, in the test on SNB-19 CNS, in the test on T-47D breast and with UACC-257 melanoma was above 100 µM in each case.
As to `C=C(CN1C(=O)CN(C)C1=O)c1ccc(C(=O)Nc2ccccc2N)cc1`, the GI50 in the test with ACHN renal was 20.9 µM; in the test with CAKI-1 renal, 18.6 µM; in the test on K-562 leukemia, 5.9 µM; in the test on NCI-H522 lung, 4.04 µM; with OVCAR-4 ovarian, 4.65 µM; in the test on OVCAR-5 ovarian, 3.56 µM. For the same compound, the GI50 is 30.9 µM with SK-MEL-2 melanoma, 38.5 µM with SNB-19 CNS, 2.55 µM in the test with T-47D breast and 5.89 µM with UACC-257 melanoma. The TGI is above 100 µM in the test with ACHN renal; 58.7 µM in the test on CAKI-1 renal; 74.5 µM in the test on K-562 leukemia; 36.2 µM with NCI-H522 lung; 35.8 µM in the test on OVCAR-4 ovarian; 85.2 µM with OVCAR-5 ovarian. Further, the TGI in the test with SK-MEL-2 melanoma is above 100 µM; in the test on SNB-19 CNS, above 100 µM; with T-47D breast, 22.2 µM; in the test on UACC-257 melanoma, 30.4 µM.
In the case of `CN(CCO)CC[C@H](CSc1ccccc1)Nc1ccc(S(=O)(=O)NC(=O)c2ccc(N3CCC([C@@H](O)c4ccccc4-c4ccc(Cl)cc4)CC3)cc2)cc1S(=O)(=O)C(F)(F)F`, the GI50 in the test on ACHN renal was above 27.8 µM; in the test on K-562 leukemia, 3.4 µM; with NCI-H522 lung it was 4.4 µM; in the test on OVCAR-4 ovarian, 17.6 µM; in the test with OVCAR-5 ovarian, 4.6 µM; with SK-MEL-2 melanoma, 1.41 µM. Besides, the GI50 is 2.77 µM in the test on SNB-19 CNS, 4.26 µM in the test on T-47D breast and 4.85 µM in the test on UACC-257 melanoma. For the same compound, the TGI with ACHN renal is above 100 µM; in the test with CAKI-1 renal, above 29.2 µM; with K-562 leukemia, above 100 µM; in the test with NCI-H522 lung it was above 72.9 µM; in the test with OVCAR-4 ovarian it was above 100 µM; in the test on OVCAR-5 ovarian, above 50.4 µM. The TGI stood at 4.28 µM in the test with SK-MEL-2 melanoma, 8.57 µM with SNB-19 CNS, 59.6 µM in the test on T-47D breast and 30.6 µM with UACC-257 melanoma.
Consider `C[C@@]1(C(=O)O)CCC[C@]2(C)C1CC[C@@]13CC(=O)[C@@](CO)(CC[C@]12O)C3` (some centres undefined), for which the GI50 in the test with ACHN renal, in the test with CAKI-1 renal, in the test with K-562 leukemia, with NCI-H522 lung, in the test on OVCAR-4 ovarian and in the test with OVCAR-5 ovarian was above 100 µM throughout. The GI50 in the test with SK-MEL-2 melanoma is above 100 µM; in the test on SNB-19 CNS, 90.7 µM; with T-47D breast, 22.2 µM; in the test with UACC-257 melanoma, above 100 µM. For the same compound, the TGI in the test with ACHN renal, in the test on CAKI-1 renal, with K-562 leukemia, with NCI-H522 lung, with OVCAR-4 ovarian and in the test with OVCAR-5 ovarian was above 100 µM each time. In addition, the TGI with SK-MEL-2 melanoma, with SNB-19 CNS, with T-47D breast and in the test on UACC-257 melanoma was above 100 µM each time.
For `CCOC(=O)Nc1ccc2c(c1)/C(=N\NC(N)=S)c1ccccc1-2`, the GI50 in the test with ACHN renal was 3.87 µM; in the test with CAKI-1 renal, 3.22 µM; in the test on K-562 leukemia, 3.94 µM; in the test with NCI-H522 lung it was 3.84 µM; in the test with OVCAR-4 ovarian it was 4.39 µM; with OVCAR-5 ovarian it was 16.8 µM. Further, the GI50 was 4.95 µM with SK-MEL-2 melanoma, 9.92 µM in the test on SNB-19 CNS, 2.48 µM with T-47D breast and 3.55 µM with UACC-257 melanoma. The TGI was 15.7 µM in the test on ACHN renal; 15.2 µM in the test on CAKI-1 renal; above 44.8 µM in the test on K-562 leukemia; 12.7 µM with NCI-H522 lung; 39.1 µM in the test with OVCAR-4 ovarian; 59.4 µM in the test with OVCAR-5 ovarian. In addition, the TGI in the test with SK-MEL-2 melanoma was 15.8 µM; with SNB-19 CNS, above 100 µM; with T-47D breast, 9.84 µM; in the test on UACC-257 melanoma, 12.7 µM.
In the case of `C=C1C(=O)O[C@@H]2C[C@@H](C)[C@@H]3C=CC(=O)[C@@]3(C)[C@@H](O)[C@H]12`, the TGI in the test on ACHN renal came to 6.33 µM; in the test on CAKI-1 renal, 1.2 µM; with K-562 leukemia, 8.34 µM; in the test on NCI-H522 lung, 0.663 µM; with OVCAR-4 ovarian, 10.5 µM; with OVCAR-5 ovarian, 3.37 µM. Further, the TGI in the test with SK-MEL-2 melanoma was found to be 4.04 µM; in the test with SNB-19 CNS, 7.02 µM; in the test with T-47D breast, 12.2 µM; in the test with UACC-257 melanoma, 3.09 µM.
As for `COc1ccc(/C=C/C(=O)c2cc(OC)c(OC)c(OC)c2)cc1OCc1cn(Cc2ccc(F)cc2)nn1`, the GI50 in the test on ACHN renal is 3.53 µM; with CAKI-1 renal, 4.79 µM; with K-562 leukemia, 3.6 µM; with NCI-H522 lung, 1.74 µM; in the test with OVCAR-4 ovarian, 3.42 µM; in the test with OVCAR-5 ovarian it was 3.22 µM. The GI50 in the test on SK-MEL-2 melanoma is 10.6 µM; in the test with SNB-19 CNS it was 4.42 µM; with T-47D breast, 3.05 µM; in the test on UACC-257 melanoma, 4.9 µM. Also, the TGI in the test on ACHN renal is 16.7 µM; in the test with CAKI-1 renal, above 100 µM; in the test with K-562 leukemia, above 100 µM; in the test on NCI-H522 lung it was 5.22 µM; in the test on OVCAR-4 ovarian, above 100 µM; in the test with OVCAR-5 ovarian it was above 100 µM. Also, the TGI with SK-MEL-2 melanoma was 41 µM; in the test with SNB-19 CNS it was above 100 µM; with T-47D breast, above 100 µM; in the test with UACC-257 melanoma, above 100 µM.
